Source: patent US11786570B2, “Dermatological product” (SYMRISE AG, priority 2018, dated 2023)
Entries after “also recorded” stand apart in the source; their conditions may differ. Marks after values point to notes of the source that are not given here. One block for each compound: values may come before it.

How the values were obtained:
human sebaceous glands [1] = assay: Total lipid (sebum) content of micro-dissected ex vivo human sebaceous glands in organ culture, lipids normalized on proteins; format: cell-based; details: for Reduction of lipids at day 6 versus untreated; Lipid reduction: Example 8; for Effect on total lipid / sebum content of sebaceous glands, in words: day 6; for Reduction of lipids at day 6 versus untreated; Total lipid reduction: Example 4
Protocol: Organ culture of human sebaceous glands micro-dissected from human skin explants was performed to evaluate the modulatory activity of Tetraselmis suecica extract prepared according to the description given in Example 1 on the sebum level. The extract is employed in the dried form.
(§1) After removal of the epidermis of the full thickness skin sample, the sebaceous glands were carefully removed using micro-scissors and scalpel. The micro-dissected sebaceous glands were then pooled in groups of 8 and cultured up to day 6 in a 24 well plate immersed in 500 μl of modified Williams'E medium. After 24 hours of acclimation the culture medium was changed and substituted with the medium containing the extract to be tested. The medium was renewed at day 3 and 5 of culture. At day 6 the glands were collected and used for the quantification of lipids and proteins.
To do so, each sebaceous glands group was homogenized in 100 μl of isopropyl alcohol to extract lipids and let the proteins undissolved. After centrifugation the supernatant containing the extracted sebum was collected and analyzed. The remaining pellet was dried using a vacuum dry evaporator and then minced in presence of 50 μl of protein lysis buffer. After an appropriate incubation time, this extractive mixture was centrifuged, and the supernatant was collected and analyzed. The lipids dissolved in isopropyl alcohol and the proteins dissolved in the lysis buffer were quantified by infrared spectroscopy using a Direct Detect IR Spectrometer (Millipore). The total lipid amount was obtained by normalizing the quantified lipids upon the quantified proteins (i.e. mg of lipids/mg of proteins). The amounts of normalized lipids, i.e. the sebum produced by each group of sebaceous glands, obtained from the treated groups was compared to that of the untreated control group and the modulatory activity was calculated in percentage. As positive control, a 5 μM Capsaicin treatment was included in the experimental design. Capsaicin is an active component of chili peppers suitable to inhibit sebogenesis [T6th et al., J. Invest. Derm. (2009), 129: 329-339]. For statistical analysis, differences among groups were evaluated by one-way anova with permutation test followed by Dunnett's permutation test.
To evaluate donor responsiveness and interindividual variability the extract was tested on sebaceous glands obtained from skin samples of three different donors.
The Organ culture of human sebaceous glands micro-dissected from human skin explants was performed to evaluate the modulatory activity of mannitol on the sebum level.
as §1, with “sample” for “extract”
To do so, each sebaceous glands group was homogenized in 100 μl of isopropyl alcohol to extract lipids and let the proteins undissolved. After centrifugation the supernatant containing the extracted sebum was collected and analyzed. The remaining pellet was dried using a vacuum dry evaporator and then minced in presence of 50 μl of protein lysis buffer. After an appropriate incubation time, this extractive mixture was centrifuged, and the supernatant was collected and analyzed. The lipids dissolved in isopropyl alcohol and the proteins dissolved in the lysis buffer were quantified by infrared spectroscopy using a Direct Detect IR Spectrometer (Millipore). The total lipid amount was obtained by normalizing the quantified lipids upon the quantified proteins (i.e. mg of lipids/mg of proteins). […]

human sebaceous glands [2] = assay: Resazurin viability test of micro-dissected human sebaceous glands, day 6 versus day 1; format: cell-based
Protocol: To better understand the response to the extract, a viability test was performed in parallel at day 1 and day 6 of organ culture. Resazurin was added to the wells (1:11) and let incubate for 2 hours. At the end of the incubation an aliquot of the medium was read with a fluorometer (excitation: 560 nm, emission: 590 nm). The medium was then replaced with normal medium for 2 hours in order to eliminate residual resazurin. After this the medium was replaced again with medium containing the test samples. The viability in each well was measured as the difference in percentage between day 6 and day 1.

[3] = Water solubility (statement); format: physicochemical
CGN [Cingulin] = assay: Gene expression by RT-qPCR in nHEK keratinocytes; format: cell-based, human; details: 0.002%
Protocol: (§2) Neonatale humane epidermal keratinocytes (nHEK) were cultivated in EpiLife medium (Gibco) including HKGS-Kit (Gibco) at 5% CO2 at 37° C. according to the supplier instructions.
(§3) […] Genomic target expression levels in extract treated cells were measured by RT-qPCR comparing to medium treatment.
(§4) RNA isolation took place using RNeasy® Mini Kit, Qiagen. Total RNA concentrations were measured using μCuvetteG 1.0 and BioPhotometer, Eppendorf by measuring the absorption at 260 nm. Purity control values, like E260/280 and E 260/230 were calculated simultaneously. Reverse transcription was done using high capacity RNA-to-cDNA Kit, Applied Biosystems, according to the supplier instructions. Samples were treated in the PCR Thermocycler, Biometra.
(§5) For the fast real-time PCR, cDNA was diluted with RNase-free water and TaqMan™ Fast Universal PCR Master Mix, Applied biosystems. Quantitaive Real-Time PCR was done using StepOne Plus Fast Real Time PCR Instrument, Applied biosystems. Analysis was done with StepOne-Software and 2-ΔCT Method (normalized to endogenous control HTRP1 expression).
(§6) For upregulations RQ values ≥2.0 and for downregulations RQ values <0.5 are considered to be relevant.

OCLN [Occludin] = assay: Gene expression by RT-qPCR in nHEK keratinocytes; format: cell-based, human; details: 0.002%
Protocol: as §2, §3, §4, §5, §6

CLDN1 [Claudin 1] = assay: Gene expression by RT-qPCR in nHEK keratinocytes; format: cell-based, human; details: 0.002%
Protocol: as §2, §3, §4, §5, §6

CLDN7 [Claudin 7] = assay: Gene expression by RT-qPCR in nHEK keratinocytes; format: cell-based, human
Protocol: Neonatale humane epidermal keratinocytes (nHEK) were cultivated in EpiLife medium (Gibco) including HKGS-Kit (Gibco) at 5% CO2 at 37° C. according to the supplier instructions. […] Genomic target expression levels in extract treated cells were measured by RT-qPCR comparing to medium treatment. RNA isolation took place using RNeasy® Mini Kit, Qiagen. Total RNA concentrations were measured using μCuvetteG 1.0 and BioPhotometer, Eppendorf by measuring the absorption at 260 nm. Purity control values, like […]/280 and E 260/230 were calculated simultaneously. Reverse transcription was done using high capacity RNA-to-cDNA Kit, Applied Biosystems, according to the supplier instructions. Samples were treated in the PCR Thermocycler, Biometra. For the fast real-time PCR, cDNA was diluted with RNase-free water and TaqManTM Fast Universal PCR Master Mix, Applied biosystems. Quantitaive Real-Time PCR was done using StepOne Plus Fast Real Time PCR Instrument, Applied biosystems. Analysis was done with StepOne-Software and 2-ΔCT Method (normalized to endogenous control HTRP1 expression).

Structure (SMILES): OC[C@@H](O)[C@@H](O)[C@H](O)[C@@H](O)CO [sorbitol, D-Sorbitol]
Reduction of lipids at day 6 versus untreated (human sebaceous glands [1]; Example 6, 0.05 ppm): −16% | Reduction of lipids at day 6 versus untreated (human sebaceous glands [1]; Example 6, 0.5 ppm): −40% | Reduction of lipids at day 6 versus untreated; Lipid reduction (human sebaceous glands [1]; 0.5 ppm): 11* % | Effect on total lipid / sebum content of sebaceous glands, in words (human sebaceous glands [1]; ex vivo human sebaceous glands): significantly reduces the lipid content | Effect on total lipid / sebum content of sebaceous glands, in words (human sebaceous glands [1]; ex vivo human sebaceous glands, listed as Sorbitol): exhibited efficacy in the expected range when compared to capsaicin | Viability (human sebaceous glands [2]; Example 6, 0.05 ppm): 80% | Viability (human sebaceous glands [2]; Example 6, 0.5 ppm): 78% | Viability (human sebaceous glands [2]; Example 8, 0.5 ppm): 95%

water solubility, in words [3]: readily water soluble
Structure (SMILES): NC(=O)c1cccnc1 [niacinamide, Niacinamide, reference compound]
Reduction of lipids at day 6 versus untreated; Lipid reduction (human sebaceous glands [1]; 0.5 ppm): 2% | Effect on total lipid / sebum content of sebaceous glands, in words (human sebaceous glands [1]; ex vivo human sebaceous glands): did not show a relevant lipid reducing activity | Viability (human sebaceous glands [2]; Example 8, 0.5 ppm): 100%

Structure (SMILES): O[C@H]1[C@H](O)[C@@H](O)[C@H](O)[C@@H](O)[C@H]1O [inositol, myo-Inosiitol]
Reduction of lipids at day 6 versus untreated (human sebaceous glands [1]; Example 7, 0.05 ppm): −32% | Reduction of lipids at day 6 versus untreated (human sebaceous glands [1]; Example 7, 0.5 ppm): −10% | Effect on total lipid / sebum content of sebaceous glands, in words (human sebaceous glands [1]; ex vivo human sebaceous glands): significantly reduce the lipid content | Viability (human sebaceous glands [2]; Example 7, 0.05 ppm): 91% | Viability (human sebaceous glands [2]; Example 7, 0.5 ppm): 97%

Structure (SMILES): OC[C@@H](O)[C@@H](O)CO [erythritol, meso-Erythritol]
Reduction of lipids at day 6 versus untreated (human sebaceous glands [1]; Example 6, 0.05 ppm): −26% | Reduction of lipids at day 6 versus untreated (human sebaceous glands [1]; Example 6, 0.5 ppm): −36% | Effect on total lipid / sebum content of sebaceous glands, in words (human sebaceous glands [1]; ex vivo human sebaceous glands): significantly reduces the lipid content | Viability (human sebaceous glands [2]; Example 6, 0.05 ppm): 82% | Viability (human sebaceous glands [2]; Example 6, 0.5 ppm): 77%

Structure (SMILES): OC[C@@H](O)[C@H](O)[C@@H](O)CO [xylitol, Xylitol]
Reduction of lipids at day 6 versus untreated (human sebaceous glands [1]; Example 6, 0.05 ppm): −23% | Reduction of lipids at day 6 versus untreated (human sebaceous glands [1]; Example 6, 0.5 ppm): −46% | Effect on total lipid / sebum content of sebaceous glands, in words (human sebaceous glands [1]; ex vivo human sebaceous glands): significantly reduces the lipid content | Viability (human sebaceous glands [2]; Example 6, 0.05 ppm): 86% | Viability (human sebaceous glands [2]; Example 6, 0.5 ppm): 80%

Structure (SMILES): COc1cc(CNC(=O)CCCC/C=C/C(C)C)ccc1O [Capsaicin, reference compound]
Reduction of lipids at day 6 versus untreated; Total lipid reduction (human sebaceous glands [1]; 5 μM (1.5 ppm)): −25% | Reduction of lipids at day 6 versus untreated (human sebaceous glands [1]; Example 6, 5 μM (1.5 ppm)): −21% | Reduction of lipids at day 6 versus untreated (human sebaceous glands [1]; Example 7, 5 μM (1.5 ppm)): −20% | Reduction of lipids at day 6 versus untreated; Lipid reduction (human sebaceous glands [1]; 5 μM (1.5 ppm)): 13* % | Viability (human sebaceous glands [2]; Example 3, Donor 1, 5 μM (1.5 ppm)): 92% | Viability (human sebaceous glands [2]; Example 3, Donor 2, 5 μM (1.5 ppm)): 99% | Viability (human sebaceous glands [2]; Example 3, Donor 3, 5 μM (1.5 ppm)): 85% | Viability (human sebaceous glands [2]; Example 4, 5 μM (1.5 ppm)): 82% | Viability (human sebaceous glands [2]; Example 6, 5 μM (1.5 ppm)): 89% | Viability (human sebaceous glands [2]; Example 7, 5 μM (1.5 ppm)): 91% | Viability (human sebaceous glands [2]; Example 8, 5 μM (1.5 ppm)): 95%

Structure (SMILES): OC[C@@H](O)[C@@H](O[C@H]1O[C@H](CO)[C@@H](O)[C@H](O)[C@H]1O)[C@H](O)[C@@H](O)CO [maltitol, Maltitol]
Reduction of lipids at day 6 versus untreated (human sebaceous glands [1]; Example 7, 0.05 ppm): −44% | Reduction of lipids at day 6 versus untreated (human sebaceous glands [1]; Example 7, 0.5 ppm): −39% | Effect on total lipid / sebum content of sebaceous glands, in words (human sebaceous glands [1]; ex vivo human sebaceous glands): significantly reduce the lipid content | Viability (human sebaceous glands [2]; Example 7, 0.05 ppm): 79% | Viability (human sebaceous glands [2]; Example 7, 0.5 ppm): 80%

Structure (SMILES): OC[C@@H](O)[C@H](O)CO [threitol, D-Threitol]
Reduction of lipids at day 6 versus untreated (human sebaceous glands [1]; Example 7, 0.05 ppm): −31% | Reduction of lipids at day 6 versus untreated (human sebaceous glands [1]; Example 7, 0.5 ppm): −47% | Effect on total lipid / sebum content of sebaceous glands, in words (human sebaceous glands [1]; ex vivo human sebaceous glands): significantly reduce the lipid content | Viability (human sebaceous glands [2]; Example 7, 0.05 ppm): 84% | Viability (human sebaceous glands [2]; Example 7, 0.5 ppm): 82%

Structure (SMILES): OC[C@@H](O)[C@@H](O[C@@H]1O[C@H](CO)[C@H](O)[C@H](O)[C@H]1O)[C@H](O)[C@@H](O)CO [lactitol, Lactitol]
Reduction of lipids at day 6 versus untreated (human sebaceous glands [1]; Example 7, 0.05 ppm): −22% | Reduction of lipids at day 6 versus untreated (human sebaceous glands [1]; Example 7, 0.5 ppm): −22% | Effect on total lipid / sebum content of sebaceous glands, in words (human sebaceous glands [1]; ex vivo human sebaceous glands): significantly reduce the lipid content | Viability (human sebaceous glands [2]; Example 7, 0.05 ppm): 99% | Viability (human sebaceous glands [2]; Example 7, 0.5 ppm): 100%

Structure (SMILES): OC[C@@H](O)[C@@H](O)[C@H](O)[C@H](O)CO [mannitol, Mannitol]
Reduction of lipids at day 6 versus untreated; Total lipid reduction (human sebaceous glands [1]; 0.03 ppm): −17% | Sebum/lipid reducing efficacy compared with positive control 5 μM capsaicin, in words (human sebaceous glands [1]; ex vivo human sebaceous glands): less effectively than 5 μM capsaicin | Effect on total lipid / sebum content of sebaceous glands, in words (human sebaceous glands [1]; ex vivo human sebaceous glands): significantly reduces the lipid content; also recorded: significantly reduced the sebum content | RQ value (CGN [Cingulin]): 1.0 | RQ value (OCLN [Occludin]): 1.0 | RQ value (CLDN1 [Claudin 1]): 0.5 | claudin 7 gene regulation, in words (CLDN7 [Claudin 7]): upregulate | RQ value (CLDN7 [Claudin 7]; 0.002%): 2.0 | Viability (human sebaceous glands [2]; Example 4, 0.03 ppm): 81%
